# Reference: patent publication US20190030053A1, “COMPOSITION FOR INCREASING EXPRESSION OF PGC-1alpha” (BENEBIOSIS CO., LTD., priority 2016, published 2019)
# Entries after “also recorded” stand apart in the source; their conditions may differ.
# Columns and labels:
# PGC-1α and related genes [1] = experiment: Abdominal fat gene expression in high-fat diet ob mouse models; type: in vivo; conditions: ob mice, oral 0.1 mg/kg/day, 10 weeks
# Method: In order to investigate gene expression changes and topical fat removal effects by treatment with SL (3′-SL & 6′-SL) composition in mouse models, 4-week-old male ob mouse (C57BL/6J-ob/ob) models were purchased from Central Lab Animal (Korea). Water was freely accessible, and a high-fat diet (Rodent Diet with 60 kcal % fat) was supplied for two weeks. […]
# Sialyllactose or DW was orally administered daily. […] The dietary intake and body weight change were measured every 5 days. […]
# Gene expression changes by the treatment with SL (3′-SL & 6′-SL) compositions were quantitatively compared in the abdominal part. RNA was extracted by TRIzol agent (Invitrogen). cDNA was synthesized by using RNA, which has been extracted as above and quantified, and a reverse transcription system (Promega, USA). The expression patterns of PGC-1α and related genes were measured by using pre-designed primers and probes (Applied Biosystems; PGC-1α, Mm00447181_m1, GAPDH, and Mm99999915_q1) for the synthesized cDNA and analysis targets (Fndc5, PGC-1α, Erra, UCP1, SOD2, and GPX1). […]
# telomerase = experiment: Telomerase activity (TRAP) in vitro, MASMs of arteriosclerosis models; type: cell-based, mouse; conditions: MASMs of ApoE−/− control group, cultured 1 day with SL
# Method: In FIG. 20, the telomerase activity was measured using TRAP protocol (Wright et al., 1995). In summary, cell pellets were lysed in CHAPS lysis solvent (containing ribonuclease inhibitor), followed by incubation at 4° C. for 30 minutes. Cell extracts ([…]) were TRAPeze reaction mix (telomerase substrate (TS) primer, fluorescent-labeled RP (reverse) primer, control standard template, and sulforhodamine-labeled standard K2 primer). The TS primer was elongated at 30° C. for 30 minutes, and then PCR was performed. The fluorescence of the thus obtained TRAP product was measured using a fluorescent plate reader to quantify telomerase activity. Relative telomerase activity was normalized by the ratio of native […] to sulforhodamine (internal control standard), expressed as a percentage. Fluorescein (M0250) was purchased from Marker Gene Technologies, Inc. H2-dichlorofluorescin diacetate (DCFDA) was purchased from Molecular Probes. MitoSOX™ Red, MitoTracker Green FM, and MitoTracker® Orange CMTMRos (MTO) were purchased from Invitrogen. 10,000× SYBR® Gold dye was purchased from Molecular Probes, Inc. Nuclear/Cytosol fractionation kit (K266-100) was purchased from BioVision. TRAPeze® XL telomerase detection kit (S7707) was purchased from MILLIPORE. Telomere PNA FISH Kit/Cy3 (K5326) was purchased from Dako. […]
# [2] = tested on: mouse aortic smooth muscle cells (MASMs); experiment: Mitochondrial superoxide production (MitoSOX Red) in MASMs of aging stimulation model mice; type: cell-based; conditions: MASMs from aging stimulation model mice; SL added to culture liquid
# Method: For the measurement of mitochondrial superoxide production, mitochondrial ROS was measured using MitoSOX Red (mitochondrial superoxide fluorescent marker). MASMs were extracted, and incubated with MitoSOX (4 μM) in the dark room at 37° C. for 20 minutes. The MitoSOX fluorescence was quantified by the cell fluorescence intensity read using a fluorescent plate reader (480 nm excitation/580 nm emission) (FIG. 17b).
# In FIGS. 17a and 17b, MASMs were extracted from the aging stimulation model mouse control group, and the SL (3′-SL & 6′-SL) compositions were added to the culture liquid to conduct comparison.
# FIGS. 17a and 17b show the measurement results of intercellular H2O2 (ROS values) (FIG. 17a) and the measurement results of mitochondrial superoxide production (FIG. 17b).
# PGC-1α and related genes [3] = experiment: Gene expression in muscle cell test (C2C12); type: cell-based; conditions: C2C12 immature muscle cells, 24 hours
# Method: C2C12 immature muscle cells were prepared from the purchase from American Tissue Culture Collection (ATCC, USA). The cells were cultured in Dulbecco's modified Eagle's medium (DMEM, Gibco, USA) supplemented with 10% fetal bovine serum (FBS, USA) in a 5% CO2 incubator at 37° C. until the cells grew to confluency of 70%, while the medium was exchanged every two days. The differentiation into muscle cells was induced by culturing in a medium containing 2% horse serum (HS, Gibco, USA). The muscle cells cultured in the medium containing 2% HS for 4 days were treated with SL with various concentrations. The negative control group was treated with physiological saline with 1/1000 of the volume of the medium. The cells treated with each sample were incubated at 37° C. for 24 hours, and then washed twice with cool saline solution, and RNA was extracted using TRIzol agent (Invitrogen). cDNA was synthesized by using 1 μg/μl of RNA, which has been extracted as above and quantified, and a reverse transcription system (Promega, USA).
# The expression patterns of PGC-1α and related genes were measured by using pre-designed primers and probes (Applied Biosystems; PGC-1α, Mm00447181_m1, GAPDH, and Mm99999915_q1) for the synthesized cDNA and analysis targets (Fndc5, PGC-1α, Erra, UCP1, SOD2, and GPX1). […]
SMILES,"expression levels of analysis targets (Fndc5, PGC-1α, Erra, UCP1, SOD2, GPX1) in abdominal fat vs negative control (PGC-1α and related genes [1])",telomerase activity in MASMs (in vitro) (telomerase),mitochondrial superoxide production [2],"expression levels of analysis targets (Fndc5, PGC-1α, Erra, UCP1, BDNF, SOD2, GPX1) vs negative control (PGC-1α and related genes [3])"
"CC(=O)N[C@H]1[C@H]([C@H](O)[C@H](O)CO)O[C@@](OC[C@H]2O[C@@H](O[C@H]3[C@H](O)[C@@H](O)[C@H](O)O[C@@H]3CO)[C@H](O)[C@@H](O)[C@H]2O)(C(=O)O)C[C@@H]1O [6′-SL, α-NeuNAc-(2→6)-β-D-Gal-(1→4)-D-Glc]",about two-time significant increases,increased telomerase activity,inhibited the mitochondrial superoxide production,significant increases
"CC(=O)N[C@H]1[C@H]([C@H](O)[C@H](O)CO)O[C@@](O[C@H]2[C@@H](O)[C@@H](CO)O[C@@H](O[C@H]3[C@H](O)[C@@H](O)C(O)O[C@@H]3CO)[C@@H]2O)(C(=O)O)C[C@@H]1O (stereo partly drawn) [3′-SL, α-NeuNAc-(2→3)-β-D-Gal-(1→4)-D-Glc]",relatively low compared with 6′-SL,increased telomerase activity,inhibited the mitochondrial superoxide production,significant increases; also recorded: lower than that of 6′-SL
